Data reported in patent US11440913B2, “Aminoimidazopyridazines as kinase inhibitors” (BRISTOL-MYERS SQUIBB COMPANY, priority 2017, dated 2022).
Counter-ions that a name gives are not always drawn. Like-named read-outs stand apart in the source and are kept apart here.

Legend:
[1] = target: His-GST-TVMV-hRIPK1(1-324) (Homo sapiens (Human), UniProt Q13546); assay: RIPK1 HTRF Binding Assay; conditions: HTRF binding, 1 h at rt; read-out: RIPK1 (IC50)
Procedure, shortened: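 HTRF probe-displacement binding: 1 nM His-GST-TVMV-hRIPK1(1-324) (baculovirus construct), 90.6 nM probe, 0.2 nM anti-GST-Tb in 20 mM HEPES, 10 mM MgCl2, 0.015% Brij-35, 4 mM DTT, 0.05 mg/mL BSA. Incubated 1 h at rt; FRET 520/495 nm ratio, inhibition relative to DMSO-only wells.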

[2] = system: MLKL phosphorylation in HT29-L23 human colorectal adenocarcinoma cells; assay: MLKL Phosphorylation High-Content Assay; format: cell-based; conditions: 6 h, necroptosis induced with TNFα, SMAC mimetic and Z-VAD, read-out: pMLKL (IC50)
Procedure, shortened: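 HT29-L23 cells pretreated 30 min at 37 °C with compound (6.25 to 0.106 μM final), then necroptosis induced with TNFα 35 ng/mL, SMAC mimetic 700 nM and Z-VAD 140 nM for 6 h. Fixed cells immunostained for MLKL pS358 and imaged; IC50 and Ymax from 4-parameter logistic fit.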

His-GST-TVMV-hRIPK1(1-324), sequence (Q13546 1-324): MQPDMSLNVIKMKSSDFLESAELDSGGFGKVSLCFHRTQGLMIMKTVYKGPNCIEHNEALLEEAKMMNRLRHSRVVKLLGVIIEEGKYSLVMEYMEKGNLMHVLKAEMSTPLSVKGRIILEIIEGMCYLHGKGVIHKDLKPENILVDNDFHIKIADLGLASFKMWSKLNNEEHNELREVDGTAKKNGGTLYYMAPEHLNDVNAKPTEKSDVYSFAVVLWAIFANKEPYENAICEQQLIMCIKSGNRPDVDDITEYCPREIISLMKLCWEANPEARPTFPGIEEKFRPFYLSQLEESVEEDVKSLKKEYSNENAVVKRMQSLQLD

SMILES | IC50 [1] [µM] | IC50 ([2]; Homo sapiens) [µM] | IC50 [2] [µM]
CC(=O)Nc1cn2nc(-c3cnc(C)c(C(=O)NCc4c(F)cccc4OCC(F)(F)F)c3)ccc2n1 [Example 190, 5-{2-acetamidoimidazo[1,2-b]pyridazin-6-yl}-N-{[2-fluoro-6-(2,2,2-trifluoroethoxy)phenyl]methyl}-2-methylpyridine-3-carboxamide] | 0.023 | 0.035 | 
CC(=O)Nc1cn2nc(-c3cnc(C)c(C(=O)NCc4cc(C(F)(F)F)ccn4)c3)ccc2n1 [Example 191, 5-{2-acetamidoimidazo[1,2-b]pyridazin-6-yl}-2-methyl-N-{[4-(trifluoromethyl)pyridin-2-yl]methyl}pyridine-3-carboxamide] | 0.938 | 0.086 | 
CC(=O)Nc1cn2nc(-c3cnc(C)c(C(=O)NCc4ccccc4OCC(F)(F)F)c3)ccc2n1 [Example 193, 5-{2-acetamidoimidazo[1,2-b]pyridazin-6-yl}-2-methyl-N-{[2-(2,2,2-trifluoroethoxy)phenyl]methyl}pyridine-3-carboxamide] | 0.056 | 0.061 | 
CC(=O)Nc1cn2nc(-c3cnc(C)c(C(=O)NCc4cccc(OCC(F)(F)F)c4)c3)ccc2n1 [Example 194, 5-{2-acetamidoimidazo[1,2-b]pyridazin-6-yl}-2-methyl-N-{[3-(2,2,2-trifluoroethoxy)phenyl]methyl}pyridine-3-carboxamide] | 0.1 | 0.141 | 
CC(=O)Nc1cn2nc(-c3cnc(C)c(C(=O)NCc4cc(F)ccc4OCC(F)(F)F)c3)ccc2n1 [Example 195, 5-{2-acetamidoimidazo[1,2-b]pyridazin-6-yl}-N-{[5-fluoro-2-(2,2,2-trifluoroethoxy)phenyl]methyl}-2-methylpyridine-3-carboxamide] | 0.043 | 0.188 | 
[2H]C([2H])([2H])[C@H](NC(=O)c1cc(-c2ccc3nc(NC(C)=O)cn3n2)cnc1C)c1cc(C(F)(F)F)ccc1F [Example 196, 5-{2-acetamidoimidazo[1,2-b]pyridazin-6-yl}-N-[(1S)-1-[2-fluoro-5-(trifluoromethyl)phenyl](2,2,2-deutero)ethyl]-2-methylpyridine-3-carboxamide] | 0.045 | 0.005 | 
[2H]C([2H])([2H])[C@@H](NC(=O)c1cc(-c2ccc3nc(NC(C)=O)cn3n2)cnc1C)c1cc(C(F)(F)F)ccc1F [Example 197, 5-{2-acetamidoimidazo[1,2-b]pyridazin-6-yl}-N-[(1R)-1-[2-fluoro-5-(trifluoromethyl)phenyl](2,2,2-deutero)ethyl]-2-methylpyridine-3-carboxamide] | 0.072 | 0.023 | 
[2H]C([2H])([2H])[C@H](NC(=O)c1cc(-c2ccc3nc(NC(C)=O)cn3n2)cnc1C)c1cc(OC(F)(F)F)ccc1F [Example 198, 5-{2-acetamidoimidazo[1,2-b]pyridazin-6-yl}-N-[(1S)-1-[2-fluoro-5-(trifluoromethoxy)phenyl](2,2,2-deutero)ethyl]-2-methylpyridine-3-carboxamide] | 0.016 | 0.014 | 
[2H]C([2H])([2H])[C@@H](NC(=O)c1cc(-c2ccc3nc(NC(C)=O)cn3n2)cnc1C)c1cc(OC(F)(F)F)ccc1F [Example 199, 5-{2-acetamidoimidazo[1,2-b]pyridazin-6-yl}-N-[(1R)-1-[2-fluoro-5-(trifluoromethoxy)phenyl](2,2,2-deutero)ethyl]-2-methylpyridine-3-carboxamide] | 0.013 | 0.017 | 
[2H]C([2H])(NC(=O)c1cc(-c2ccc3nc(NC(C)=O)cn3n2)cnc1C)c1cc(C(F)(F)F)ccc1F [Example 200, 5-{2-acetamidoimidazo[1,2-b]pyridazin-6-yl}-N-{[2-fluoro-5-(trifluoromethyl)phenyl] (deutero)methyl}-2-methylpyridine-3-carboxamide] | 0.017 | 0.034 | 
CC(=O)Nc1cn2nc(-c3cnc(C)c(C(=O)NCc4cc(F)cc(F)c4OC4CCOCC4)c3)ccc2n1 [Example 201, N-{[3,5-difluoro-2-(oxan-4-yloxy)phenyl]methyl}-5-{2-acetamidoimidazo[1,2-b]pyridazin-6-yl}-2-methylpyridine-3-carboxamide] | 0.006 | 0.01 | 
CC(=O)Nc1cn2nc(-c3cnc(C)c(C(=O)NC(C)c4ccccc4OC(F)(F)F)c3)ccc2n1 (centres unmarked) [Example 202, 5-{2-acetamidoimidazo[1,2-b]pyridazin-6-yl}-2-methyl-N-{1-[2-(trifluoromethoxy)phenyl]ethyl}pyridine-3-carboxamide] | 0.032 |  | 0.034
CC(=O)Nc1cn2nc(-c3cnc(C)c(C(=O)NC(C)c4ccccc4OC(F)(F)F)c3)ccc2n1 (centres unmarked) [Example 203, 5-{2-acetamidoimidazo[1,2-b]pyridazin-6-yl}-2-methyl-N-{1-[2-(trifluoromethoxy)phenyl]ethyl}pyridine-3-carboxamide] | > 5 |  | > 6.25
CC(=O)Nc1cn2nc(-c3cnc(C)c(C(=O)NC(C)c4cc(C(F)(F)F)ccc4F)c3)ccc2n1 (centres unmarked) [Example 204, 5-{2-acetamidoimidazo[1,2-b]pyridazin-6-yl}-N-{1-[2-fluoro-5-(trifluoromethyl)phenyl]ethyl}-2-methylpyridine-3-carboxamide] | 0.122 | 0.083 | 
CC(=O)Nc1cn2nc(-c3cnc(C)c(C(=O)NC(C)c4cc(C(F)(F)F)ccc4F)c3)ccc2n1 (centres unmarked) [Example 205, 5-{2-acetamidoimidazo[1,2-b]pyridazin-6-yl}-N-{1-[2-fluoro-5-(trifluoromethyl)phenyl]ethyl}-2-methylpyridine-3-carboxamide] | 0.027 |  | 0.074
CC(=O)Nc1cn2nc(-c3cnc(C)c(C(=O)NCc4cc(C(F)(F)F)ccc4F)c3)ccc2n1 [Example 206, 5-{2-acetamidoimidazo[1,2-b]pyridazin-6-yl}-N-{[2-fluoro-5-(trifluoromethyl)phenyl]methyl}-2-methylpyridine-3-carboxamide, TFA] | 0.012 | 0.037 | 
CC(=O)Nc1cn2nc(-c3cnc(C)c(C(=O)NCc4cc(F)cc(OC(F)(F)F)c4)c3)ccc2n1 [Example 207, 5-{2-acetamidoimidazo[1,2-b]pyridazin-6-yl}-N-{[3-fluoro-5-(trifluoromethoxy)phenyl]methyl}-2-methylpyridine-3-carboxamide, TFA] | 0.029 | 0.092 | 
[2H]C([2H])(NC(=O)c1cc(-c2ccc3nc(NC(C)=O)cn3n2)cnc1C)c1cc(OC(F)(F)F)ccc1F [Example 208, 5-{2-acetamidoimidazo[1,2-b]pyridazin-6-yl}-N-{[2-fluoro-5-(trifluoromethoxy)phenyl] (deutero)methyl}-2-methylpyridine-3-carboxamide] | 0.005 | 0.005 | 
CC(=O)Nc1cn2nc(-c3cnc(C)c(C(=O)NCc4ccc(F)c(F)c4OCC4CC4)c3)ccc2n1 [Example 209, N-{[2-(cyclopropylmethoxy)-3,4-difluorophenyl]methyl}-5-{2-acetamidoimidazo [1,2-b]pyridazin-6-yl}-2-methylpyridine-3-carboxamide] | 0.133 | 0.202 | 
CC(=O)Nc1cn2nc(-c3cnc(C)c(C(=O)NCc4cc(F)cc(F)c4OCC4CCC4)c3)ccc2n1 [Example 210, N-{[2-(cyclobutylmethoxy)-3,5-difluorophenyl]methyl}-5-{2-acetamidoimidazo[1,2-b]pyridazin-6-yl}-2-methylpyridine-3-carboxamide, TFA] | 0.003 |  | 0.005
CC(=O)Nc1cn2nc(-c3cnc(C)c(C(=O)NCC[C@@H](O)c4ccc(Cl)cc4)c3)ccc2n1 [Example 211, N-[(3R)-3-(4-chlorophenyl)-3-hydroxypropyl]-5-{2-acetamidoimidazo[1,2-b]pyridazin-6-yl}-2-methylpyridine-3-carboxamide] | 0.062 | 0.137 | 
CC(=O)Nc1cn2nc(-c3cnc(C)c(C(=O)NCc4cccc(F)c4OCC4CC4)c3)ccc2n1 [Example 212, N-{[2-(cyclopropylmethoxy)-3-fluorophenyl]methyl}-5-{2-acetamidoimidazo [1,2-b]pyridazin-6-yl}-2-methylpyridine-3-carboxamide] | 0.008 | 0.004 | 
CC(=O)Nc1cn2nc(-c3cnc(C)c(C(=O)NCc4cc(OC(F)(F)F)ccc4F)c3)ccc2n1 [Example 213, 5-{2-acetamidoimidazo[1,2-b]pyridazin-6-yl}-N-{[2-fluoro-5-(trifluoromethoxy)phenyl]methyl}-2-methylpyridine-3-carboxamide] | 0.007 | 0.006 | 
CC(=O)Nc1cn2nc(-c3cnc(C)c(C(=O)NCc4cc(F)cc(F)c4OCC4CC4)c3)ccc2n1 [Example 214, N-{[2-(cyclopropylmethoxy)-3,5-difluorophenyl]methyl}-5-{2-acetamidoimidazo[1,2-b]pyridazin-6-yl}-2-methylpyridine-3-carboxamide] | 0.001 | 0.016 | 
CC(=O)Nc1cn2nc(-c3cnc(C)c(C(=O)NCc4cc(OCC5CC5)ccc4F)c3)ccc2n1 [Example 215, N-{[5-(cyclopropylmethoxy)-2-fluorophenyl]methyl}-5-{2-acetamidoimidazo[1,2-b]pyridazin-6-yl}-2-methylpyridine-3-carboxamide] | 0.008 | 0.022 | 
